# Source: patent publication US8258099B2, “Pin1-modulating compounds and methods of use thereof” (Max-Planck-Gesellschaft zur Foerderung der Wissenschaften …, priority 2004, dated 2012)
# Square brackets hold non-standard residues; d marks the D form. Peptide text beside a SMILES is read from it. d(pT) = C[C@H](OP(=O)(O)O)[C@@H](N)C(=O)O; 2Nal = N[C@@H](Cc1ccc2ccccc2c1)C(=O)O; Pip = O=C(O)[C@@H]1CCCCN1
# How the values were obtained:
# [1] = target: FKBP12 (Homo sapiens, UniProt P62942); test: Protease coupled PPIase assay, FKBP12; format: biochemical
# Protocol: PPIase activities were monitored on a Hewlett-Packard 8452A diode array spectrophotometer according to Fischer et al., 1984 and Zhang et al., 2002. The hPar14 PPIase activity was measured with Suc-Ala-Arg-Pro-Phe-NH-Np (SEQ ID NO: 3) (final concentration 75 μM) as substrate and α-chymotrypsin (final concentration 60 μM) as isomer specific protease. PPIase activity of hCyp 18 and FKBP12 were measured using Suc-Ala-Ala-Pro-Phe-NH-Np (SEQ ID NO: 7) as substrate (final concentration 16 μM) and α-chymotrypsin (final concentration 60 μM) as isomer specific protease. PPIase activity of hPin1 was measured with Ac-Ala-Ala-Ser(PO3H2)-Pro-Arg-NH-Np (SEQ ID NO: 4) (final concentration 10 μM) as substrate and trypsin (final concentration 60 μM) as isomer specific protease. […] Measurements were monitored at 390 nm.
# Data analysis was performed by single-exponential nonlinear regression using the SigmaPlot Scientific Graphing System Version 5.00 (Jandel Corp.). […] The rate constant k0 was determined in the absence of Pin1. The first order rate constants kenz was calculated from the equation kenz=kobs−k0. IC50 and Ki values were determined by fitting the first order rate constants kenz against the concentration of the inhibitory peptide by nonlinear regression according to Schutkowski et al., 1995 or a model for tight binding inhibitors (Morrison, 1969).
# [2] = target: T1, interaction of MPM-2 antigens with GST-hPin1 (Homo sapiens, UniProt Q13526); test: MPM-2 competition assay; format: binding; details: mitotic HeLa cell lysate, 8 μM GST-hPin1
# T1 construct: made in house
# Protocol: FIG. 7 depicts the influence of peptide 17 on the interaction of MPM-2 antigens with hPin1. The indicated concentration of peptide 17 or its nonphosphorylated derivative (control) was incubated with an 8 μM solution of GST-hPin1. After addition of mitotic HeLa cell lysate, GST-hPin1 was extracted from the respective mixture using glutathione sepharose. Samples were analyzed regarding extracted GST-hPin1 and coprecipitated MPM-2 antigenes by SDS PAGE and western blot analysis. Untreated lysate of mitotic HeLa cells was loaded on the first line (extract). MPM-2 antigenes were detected using the monoclonal anti MPM-2 antibody (mouse). GST-hPin1 was detected using an anti hPin1 PPIase domain antiserum (rabbit). Horseradish peroxidase-conjugated antibodies from mouse or rabbit were used as secondary antibodies. […]
# 1.3 mM of Peptide 17 or its nonphosphorylated derivative were incubated with GST-hPin1 (8 μM) for 2 hours at 4° C. […] Following SDS-PAGE, the samples were analyzed by western blot analysis. GST-hPin1 and coextracted MPM-2 antigens were detected using an anti hPin1 PPIase domain antiserum (rabbit) or monoclonal anti MPM-2 antibody (Upstate Biotechnology) from mouse. […]
# MPM-2 antigens are mitotic phosphoproteins that are specifically recognized by the monoclonal antibody MPM-2. […] The coextracted MPM-2 antigenes were detected after SDS PAGE by western blot analysis using the anti MPM-2 antibody. […]
# Sequence of FKBP12 (P62942 whole entry): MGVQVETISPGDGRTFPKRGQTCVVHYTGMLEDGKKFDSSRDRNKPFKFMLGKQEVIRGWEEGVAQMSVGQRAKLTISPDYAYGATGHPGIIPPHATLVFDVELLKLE
# T1 sequence (Q13526 whole entry): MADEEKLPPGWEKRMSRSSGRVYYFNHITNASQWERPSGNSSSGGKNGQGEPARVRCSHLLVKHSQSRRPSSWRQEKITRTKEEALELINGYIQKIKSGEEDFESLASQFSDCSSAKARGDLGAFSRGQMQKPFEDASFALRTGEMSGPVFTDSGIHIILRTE
smiles,measurement,setting,value
"CC(=O)N[C@@H](Cc1ccccc1)C(=O)N[C@@H](C(=O)N1CCCC[C@H]1C(=O)N[C@@H](Cc1ccc2ccccc2c1)C(=O)N[C@@H](CCC(N)=O)C(N)=O)[C@H](C)OP(=O)(O)O [Peptide 17, Ac-Phe-D-Thr(PO3H2)-Pip-Nal-Gln-NH2] (Ac-F[d(pT)][Pip][2Nal]Q-NH2)",inhibition of FKBP12,[1],no inhibition
same,influence on interaction of MPM-2 antigenes with GST-hPin1,[2],did not influence
